Entries after “also recorded” stand apart in the source; their conditions may differ.
Tests used:
α-D-glucosidase = α-D-glucosidase activity under gas; format: biochemical; conditions: FIG. 31
Protocol: Solution preparation: Optimized w/v solutions are prepared by diluting the enzyme (units/ml) and the substrate (μg/ml) in appropriate buffer (optimized pH and molarity for enzymes). The solutions are used for gas experiments at once to avoid loss of activity. Various enzyme and substrate concentrations and inhibitors may be employed. Physical parameters are varied as required. […] Gas-tight serum vials are filled with enzyme and solvent. Sufficient gas is consecutively bubbled in the cuvets and serum vials, with a 1-hr wait between injections to maximize equilibration of gas. All syringes and dead spaces are purged before filling with the appropriate gas. The amount of gas used has been measured sufficient to saturate the solution required. Spectrophotometric time-drive, reaction rate, and kinetic analyses: cuvets and serum vials are saturated with gas 40 minutes before the run. A gas-filled syringe is used to retrieve 0.5 ml of enzyme solution to avoid air contact. […] Changes in the rate or final equilibrium of the reaction versus ambient air are recorded. Comparison is also made with added oxygen, and with deoxygenation. Some samples are also prepared under pressure.

particulate sialidase = conditions: Sandhoff et al, FEBS Letters 1976; cited from earlier work
[1] = Schreiner; independent of oxygen partial pressure; cited from earlier work
tyrosinase [2] = assay: Oxygen addition experiment, tyrosinase; format: biochemical
Protocol: (§1) In a complete experiment, an enzyme at optimal pH and buffering salt concentration is reacted with 5 substrate concentrations in solution with noble gas at 1 atm. […] Controls are also run after evacuation of solution by vacuum. The reaction is monitored colorimetrically in a scanning spectrophotometer in real time, and the signals are treated mathematically to obtain rate and yield differences. Sample numbers are constant and sufficient to ensure significance of results. All parameters are independently controlled and measured, and more complex experiments are occasionally carried out.

Tyrosinase [3] = assay: Tyrosinase-L-tyrosine reaction, solution saturated with gas; format: biochemical, Mushroom
Protocol: (§2) Solution preparation: Optimized w/v solutions are prepared by diluting the enzyme (units/ml) and the substrate (μg/ml) in appropriate buffer (optimized pH and molarity for enzymes). The solutions are used for gas experiments at once to avoid loss of activity. Various enzyme and substrate concentrations and inhibitors may be employed. Physical parameters are varied as required.
(§3) Preparation of samples: Cuvets are filled with 2 ml of substrate solution by means of a gas-tight syringe. Gas-tight serum vials are filled with enzyme and solvent. Sufficient gas is consecutively bubbled in the cuvets and serum vials, with a 1-hr wait between injections to maximize equilibration of gas. All syringes and dead spaces are purged before filling with the appropriate gas. The amount of gas used has been measured sufficient to saturate the solution required.
(§4) Spectrophotometric time-drive, reaction rate, and kinetic analyses: cuvets and serum vials are saturated with gas 40 minutes before the run. A gas-filled syringe is used to retrieve 0.5 ml of enzyme solution to avoid air contact. The 0.5 ml syringe injections of enzyme are made simultaneously to effect a common starting time to for the samples. 7 gases (air, O2, N2, Ne, Ar, Kr, Xe) are run at various temperatures each (from 0° to 60° ). Changes in the rate or final equilibrium of the reaction versus ambient air are recorded. Comparison is also made with added oxygen, and with deoxygenation. Some samples are also prepared under pressure.
1. Solution preparation: 10% w/v solutions are prepared by diluting the enzyme (units/ml) and the substrate (μg/ml) in Sodium Phosphate buffer (pH 6.85, optimized pH for enzymes). The solutions are stored in refrigerator (0°-5° C.) and used for gas experiments within 2 or 3 days to avoid loss of activity.
6. Preparation of run samples: Acrylic cuvets are filled with 2 ml of substrate solution by means of a gas tight syringe. Gastight serum vials are filled with enzyme. 3×10 cc of gas are consecutively bubbled in the cuvets and serum vials, with a […] between injections. This represents a 10× displacement of dead volume while maximizing equilibration of gas. All syringes and dead spaces are purged before filling with the appropriate gas. After the third 10 cc injection, the cuvets and serum vials are left overnight under two 10 cc syringes filled with the appropriate gas in refrigerator at 0°-5° C.
8. Spectrophotometric runs: The cuvets and serum vials are filled with 10 cc of gas 40 min before the run. A gas-filled syringe is used to retrieve 0.5 ml of enzyme solution to avoid air contact. The 0.5 ml syringe injections of enzyme are made simultaneously to effect a common starting time t0 for the samples. Seven gases (air, O2, N2, Ne, Ar, Kr, Xe) are run at five temperatures each (15° C., 20° C., 25° C., 30° C., 35° C.). Changes in the rate or final equilibrium of the reaction versus ambient air are recorded.
The optimal conditions are [E]/[S] (100 μg/ml)/(100 μg/ml), the changes in absorbance being observed at 305 nm.
3×10 cc of gas are bubbled in the silicone-sealed cuvets and serum vials (T-3754, T-7755), with an interval of 20 min (at 0°-5°C.) between each gas injection.
a. The silicone-sealed cuvets are removed from the refrigerator 40 min before the experimental run, filled with 10 cc of gas and left at room temperature (26° C.) under two 10 cc syringes.
The 0.5 ml syringe injections of enzyme are made simultaneously to effect a common starting time t0 for the samples.
200 points, 18 s intervals 1 hr run

[4] = system: phenylalanine ammonia lyase; assay: Phenylalanine ammonia lyase activity under gas; format: biochemical; conditions: FIG. 32
Protocol: as §2, §3, §4, §1

Phosphoglucose isomerase = Phosphoglucose isomerase (Homo sapiens, UniProt P06744); assay: Phosphoglucose isomerase activity under gas; format: biochemical; conditions: 25° C., FIG. 35
Protocol: as §2, §3, §4, §1

glucosidase = system: glucosidase
Protocol: as §1

Compound: FS(F)(F)(F)(F)F [SF6, sulfur hexafluoride, reference compound]
- effect on α-D-glucosidase (α-D-glucosidase): enhancement

Compound: FC(F)(F)C(Cl)Br (centres unmarked) [halothane]
- effect on activity of particulate sialidase (particulate sialidase): enhance the activity

Compound: [N-]=[N+]=O [nitrous oxide]
- inhibition per atmosphere of added gas [1]: 1.9 % inhibition per atmosphere
- effect on activity of particulate sialidase (particulate sialidase): enhance the activity

Compound: O=O [oxygen, reference compound]
- effect of oxygen on tyrosinase activity (tyrosinase [2]; addition of a small amount oxygen): enhanced tyrosinase activity slightly
- maximum increase in activity of tyrosinase (tyrosinase [2]; addition of oxygen to air): 6%
- effect on tyrosinase-L-tyrosine reaction (Tyrosinase [3]; 15° C.): approximately the same effect
- effect on tyrosinase-L-tyrosine reaction (Tyrosinase [3]; 20° C.): only a moderate inhibitory effect; also recorded: little effect; also recorded: no enhancing effect; also recorded: does not enhance
- effect on tyrosinase-L-tyrosine reaction (Tyrosinase [3]; 30° C.): inhibitory effect; also recorded: no longer enhances; also recorded: no enhancing effect
- temperature dependence of the effect on tyrosinase (Tyrosinase [3]; various temperatures (15-35° C.)): curves obtained with oxygen instead of air are identical; also recorded: saturates at 30 °C
- effect on phenylalanine ammonia-lyase [4]: enhancement
- effect on phosphoglucose isomerase (Phosphoglucose isomerase): inhibition
- effect of adding oxygen to glucosidase reactions (glucosidase): no observed effect
- effect on α-D-glucosidase (α-D-glucosidase): enhancement
